Results from US20250340846A1, “PATIENT-DERIVED CELL-CONTAINING DROPLETS ENABLE CLINICAL PRECISION ONCOLOGY” (Xilis, Inc., priority 2022, published 2025).

Columns and labels:
[1] = tested on: MOS from metastatic rectal cancer biopsy; test: High-throughput drug screen on patient-derived MOS, CellTiter-Glo viability; assay type: cell-based, human; details: 1 μM, 72 hours, 30 tumor cells per MOS
Protocol: (§1) Drug High-Throughput Screening: Automated liquid handling was provided by the Echo Acoustic Dispenser (Labcyte) for drug administration or Well mate (Thermo Fisher) for cell plating, and assays were performed using a Clariosean plate reader (BMG Labtech). Immediately prior to cell plating, 384 well plates were stamped with 119 FDA-approved drug compounds at a final concentration of 1 μM. The compound library (Approved Oncology Set VI) was provided by the NCI Developmental Therapeutics Program (https://dtp.cancer.gov/). MOS were plated in these drug pre-coated plates at 100 MOS/well with each MOS containing 30 cells/droplet. Cell viabilities were assessed via CellTiter-Glo Luminescent Cell Viability Assay (Promega, USA) 72 hours after cell plating. Percent cytotoxicity was quantified using the following formula: 100*[1-(average CellTiterGlo^drug/average CellTiterGlo^control)].
Since clinical treatment decisions are often made within 10-14 days of diagnosis, an ideal diagnostic assay would give results within 14 days and use minimal tissue (e.g., core biopsies) to predict clinical outcome. In an initial study, a biopsy was obtained from a patient presenting with metastatic rectal cancer, and MOS (30 tumor cells per MOS) were established within 8 days of biopsy. […]

[2] = tested on: metastatic CRC patient-derived MOS; test: Oxaliplatin drug testing of MOS from CRC core biopsies (Cell Titer Glo); assay type: cell-based, human; details: 1 μM and 10 μM, cut-off 50% killing
Protocol: as §1
A prospective clinical study was then designed and conducted. Core biopsies (18-gauge) were obtained from seven additional patients presenting with metastatic CRC, MOS were generated, and drug testing was performed (FIGS. 1H and 1I). MOS (30 tumor cells per MOS) were generated and responses to oxaliplatin were tested within 13 days (9.9 days on average) from time of biopsy for all eight biopsy samples, with a success rate of 100% (8/8) (TABLE 2). Given the limited tissue volume, dosages of 1 μM and 10 μM were selected based on studies disclosed elsewhere (Vlachogiannis et al., Science 359, 920-926, 2018, Ooft et al., Science Translational Med 11, 2019; Ganesh et al., Nat Med 25, 1607-1614, 2019; and Yao et al., Trends Immunol 41, 652-664, 2020). The same cut-off as measured via Cell Titer Glo was used. Among the eight patients, four had oxaliplatin-sensitive MOS and four had oxaliplatin-resistant MOS (FIG. 1J).

[3] = tested on: CRC MOS lines resistant to oxaliplatin; test: Caspase 3/7 fluorescence imaging of oxaliplatin-treated CRC MOS; assay type: cell-based, human; details: two oxaliplatin-resistant CRC MOS lines (CRC1282, CRC1297), 20 cells per MOS
Protocol: Cell death for each MOS was measured by imaging the Caspase 3/7 fluorescence signal and normalizing it by the cell surface area inside each MOS.

metastatic CRC = test: Clinical outcome of patients on oxaliplatin-based therapy (CT scan, time on treatment); assay type: in vivo, human
Text: All eight patients received oxaliplatin-based therapy per usual treatment guidelines. Patient outcomes were subsequently evaluated by CT scan before and after oxaliplatin treatment (FIGS. 2B-2H), and time-on-treatment was compared to MOS oxaliplatin sensitivity.

lung tumor MOS = test: IO assay with immunotherapy and MHC block, matched TILs; assay type: cell-based, human
Protocol: IO assay with immunotherapy and MHC block: Lung tumor MOS were incubated with anti-MHC I/II antibodies (W6/32; Tu39, Cat #361702, Biolegend) at a concentration of 20 μg/mL for 45 minutes at 37° C. before seeding into a 96-well plate at a density of 30-50 MOS per well supplied with lung tumor culture medium without Y-27632. Non-MHC-blocked MOS were used as controls. Matched TILs were added to each well at a 5:1 effector: target ratio. Nivolumab was added to wells at a working concentration of 10 μg/mL. The CD2/CD3/CD28 T cell activator reagent was added at a working concentration of 25 μl/mL. Annexin V was added into each well following the manufacturer's instructions.
Adjunctive therapies were explored by first combining PD-1 blockade (nivolumab) with autologous TILs against matched lung tumor MOS. […] TCB were then combined with autologous TILs or allogeneic PBMCs to treat lung cancer MOS (20 cells per MOS) expressing HLA-A2. ESK1* enhanced both TIL- and PBMC-induced tumor cell death compared to DP47 (FIGS. 11I, 11J, 12J, and 12K). Annexin V signals were higher in MOS treated with ESK1* vs. DP47 in all seven lung cancer samples (FIG. 11K). […] Heterogeneity in drug response between MOS from the same patient was observed and quantified (FIGS. 12K and 12L).

[4] = tested on: MOS derived from a kidney cancer patient; test: IO assay, Incucyte Annexin V, kidney tumor MOS; assay type: cell-based, human; details: nivolumab alone, day 3 MOS
Protocol: (§2) IO assay and Incucyte live cell imaging: MOS generated from primary tumor tissue were plated into 96-well plates with a density of 30-50 MOS per well supplied with culture medium without Y compound. Day 3 or day 4 MOS were treated with ESK1*, DP47 or Nivolumab for at least 3 days and imaged in Incucyte during the treatment. When performing immune cell potency assay, pre-activated PBMCs or matched TILs were stained with Cytolight Rapid red dye following manufacturer instructions. Briefly, Cytolight Rapid Red dye in one vial was diluted with 20 μl DMSO and further diluted 10-fold in PBS. PBMC or TILs were incubated at 37° C. with 5 μl diluted Cytolight Red dye (500X) in PBS for 25 minutes. After one wash with PBS, PBMC or TILs were counted and resuspended into wells containing MOS and culture medium at an effector: target ratio of 5:1 or 10:1. Annexin V green dye, Caspase 3/7 green dye, or Cytotox green dye was added into each well following manufacturer instruction. Plates were loaded into Incucyte S3 and images were taken every 2 hours for 4-5 days.
(§3) MOS generated from NSCLC patient samples at a density of 30 tumor cells per MOS formed tumorsphere-like structures in the presence of tumor-resident immune cells. MOS (day 4) were then treated with anti-PD1 therapy nivolumab at 10 μg/mL and Annexin V was used to evaluate cell apoptosis. […]

[5] = tested on: MOS generated from NSCLC patient samples; test: IO assay, Incucyte Annexin V, MOS with tumor-resident immune cells; assay type: cell-based, human; details: 10 μg/mL, day 4 MOS, 30 tumor cells per MOS
Protocol: as §2, §3

Molecule: CCc1c2c(nc3ccc(OC(=O)N4CCC(N5CCCCC5)CC4)cc13)-c1cc3c(c(=O)n1C2)COC(=O)[C@]3(O)CC [irinotecan]
- % killing [1]: < 50%

Molecule: O=C1[O][Pt]2([NH][C@@H]3CCCC[C@H]3[NH]2)[O]C1=O [oxaliplatin]
- MOS Prediction ([2]; patient CRC-MOS-001): Sensitive
- MOS Prediction ([2]; patient CRC-MOS-002): Resistance
- MOS Prediction ([2]; patient CRC-MOS-003): Sensitive
- MOS Prediction ([2]; patient CRC-MOS-004): Resistance
- MOS Prediction ([2]; patient CRC-MOS-005): Sensitive
- MOS Prediction ([2]; patient CRC-MOS-006): Resistance
- MOS Prediction ([2]; patient CRC-MOS-007): Sensitive
- MOS Prediction ([2]; patient CRC-MOS-008): Resistance
- cell killing, Caspase 3/7 signal normalized by cell surface area [3]: only the highest dosages induced significant cell killing
- patient tumor response to oxaliplatin-based therapy (metastatic CRC; metastatic rectal cancer patient, 6 months later): still responded
- Clinical Outcome (metastatic CRC; patient CRC-MOS-001, oxaliplatin-based therapy): Response
- Response Time (metastatic CRC; patient CRC-MOS-001, time on oxaliplatin-based treatment): 46 wks
- Clinical Outcome (metastatic CRC; patient CRC-MOS-002, oxaliplatin-based therapy): Response
- Response Time (metastatic CRC; patient CRC-MOS-002, time on oxaliplatin-based treatment): 28 wks
- Clinical Outcome (metastatic CRC; patient CRC-MOS-003, oxaliplatin-based therapy): Response
- Response Time (metastatic CRC; patient CRC-MOS-003, time on oxaliplatin-based treatment): 38 wks
- Clinical Outcome (metastatic CRC; patient CRC-MOS-004, oxaliplatin-based therapy): No Response
- Response Time (metastatic CRC; patient CRC-MOS-004, time on oxaliplatin-based treatment): 8 wks
- Clinical Outcome (metastatic CRC; patient CRC-MOS-005, oxaliplatin-based therapy): Response
- Response Time (metastatic CRC; patient CRC-MOS-005, time on oxaliplatin-based treatment): 36 wks
- Clinical Outcome (metastatic CRC; patient CRC-MOS-006, oxaliplatin-based therapy): No Response
- Response Time (metastatic CRC; patient CRC-MOS-006, time on oxaliplatin-based treatment): 3 wks
- Clinical Outcome (metastatic CRC; patient CRC-MOS-007, oxaliplatin-based therapy): No Response
- Response Time (metastatic CRC; patient CRC-MOS-007, time on oxaliplatin-based treatment): 24 wks
- Clinical Outcome (metastatic CRC; patient CRC-MOS-008, oxaliplatin-based therapy): No Response
- Response Time (metastatic CRC; patient CRC-MOS-008, time on oxaliplatin-based treatment): 6 wks
- % killing [1]: > 50%

Molecule: nivolumab
- TIL-mediated killing inside MOS (Annexin V) (lung tumor MOS; 10 μg/mL with autologous TILs, effector:target 5:1): enhanced TIL-mediated killing
- TIL-mediated killing inside MOS (Annexin V) with MHC block (lung tumor MOS; anti-MHC I/II antibodies 20 μg/mL, autologous TILs): abrogated
- killing of tumorspheres inside MOS (Annexin V) [4]: did not enhance killing
- death of tumorspheres within MOS (Annexin V) [5]: induced death in the tumorspheres
